Experimental findings from patent publication US20230027929A1, “MrgprX2 Antagonists and Uses Thereof” (Dermira, Inc., priority 2019, published 2023) are described below.

The target of this assay is T1, hMrgpMRGPRX2 (Homo sapiens, UniProt Q96LB1).
T1 construct: expressed in transfected cells
T1 sequence (Q96LB1 1-330): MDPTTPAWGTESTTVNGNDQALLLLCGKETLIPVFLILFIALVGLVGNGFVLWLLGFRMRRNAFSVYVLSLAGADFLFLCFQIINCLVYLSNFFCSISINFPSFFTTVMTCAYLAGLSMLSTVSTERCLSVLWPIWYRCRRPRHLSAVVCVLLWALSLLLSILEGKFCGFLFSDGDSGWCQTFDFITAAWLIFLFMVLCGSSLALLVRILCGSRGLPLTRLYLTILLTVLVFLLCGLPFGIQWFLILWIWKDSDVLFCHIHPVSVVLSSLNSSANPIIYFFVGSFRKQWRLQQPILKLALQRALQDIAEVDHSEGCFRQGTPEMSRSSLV
In words: FLIPR intracellular calcium mobilization, antagonist activity in recombinant hMrgpMRGPRX2 expressing cells. The assay is classed as cell-based. The settings on record: read-out: Human MrgprX2 Antagonist pIC50 (converted). The text has this:
Potent and selective hMrgpMRGPRX2 compounds have been generated from compounds identified during a high throughput screening (HTS) campaign and followed up with cycles of structure activity based medicinal chemistry efforts. These compounds were characterized in recombinant hMrgpMRGPRX2 expressing cells for their antagonist activity and the potency was confirmed in the human mast cell line LAD-2, where the target is endogenously expressed. The assays used to determine potencies are functional read-out looking at intracellular calcium mobilization using the FLIPR™ technology. In these FLIPR assays, we test the identified compounds using recombinant cellular systems expressing mouse MrgprB2, mouse MrgprA1, gerbil MrgpMRGPRX2 orthologue, Chinese hamster MrgpMRGPRX2 orthologue and cynomolgus monkey MrgpMRGPRX2 orthologue, respectively for orthologue activity.
A general note: Calcium flux is commonly read through the fluorescence of an indicator in the cells.
Consider `CCN(C[C@@H](O)C(F)(F)F)C(=O)Nc1ccc(OCc2cccc(F)c2)cn1` [Compound E138], for which the IC50 was 0.871 µM.

For the molecule `CN(C[C@@](C)(O)C(F)(F)F)C(=O)Nc1ccc(Oc2ccc(F)c(F)c2)cn1` [Compound E139, 3-[5-(3,4-difluorophenoxy)-2-pyridyl]-1-methyl-1-[(2R)-3,3,3-trifluoro-2-hydroxy-2-methyl-propyl]urea], the IC50 is 0.0151 µM.

In the case of `CN(C[C@@](C)(O)C(F)(F)F)C(=O)Nc1ccc(Oc2cc(F)cc(F)c2)cn1` [Compound E140, 3-[5-(3,5-difluorophenoxy)-2-pyridyl]-1-methyl-1-[(2R)-3,3,3-trifluoro-2-hydroxy-2-methyl-propyl]urea], the IC50 was 0.00158 µM.

For the molecule `CN(C[C@@](C)(O)C(F)(F)F)C(=O)Nc1ccc(Oc2ccc(F)cc2F)cn1` [Compound E141, 3-[5-(2,4-difluorophenoxy)-2-pyridyl]-1-methyl-1-[(2R)-3,3,3-trifluoro-2-hydroxy-2-methyl-propyl]urea], the IC50 is 0.00204 µM.

In the case of `CCN(C[C@@H](O)C(F)(F)F)C(=O)Nc1ccc(-n2cccn2)cn1` [Compound E142, 1-ethyl-3-(5-pyrazol-1-yl-2-pyridyl)-1-[(2R)-3,3,3-trifluoro-2-hydroxy-propyl]urea], the IC50 was 8.71 µM.

For `CC(C)C(=O)Nc1cc(Oc2cc(F)cc(F)c2)ccn1` [Compound E143, N-[4-(3,5-difluorophenoxy)-2-pyridyl]-2-methyl-propanamide], the IC50 was 0.2 µM.

Turning to `O=C(Nc1cc(Oc2cc(F)cc(F)c2)ccn1)C1CC1` [Compound E144, N-[4-(3,5-difluorophenoxy)-2-pyridyl]cyclopropanecarboxamide], the IC50 is 1 µM.

On to `CC(C)C(=O)Nc1cc(Oc2ccccc2)ccn1` [Compound E145, 2-methyl-N-(4-phenoxy-2-pyridyl)propanamide], for which the IC50 is 0.794 µM.

As for `CC1(C)C(C(=O)Nc2cc(N3CCCC3)ccn2)C1(C)C` [Compound E146, 2,2,3,3-tetramethyl-N-(4-pyrrolidin-1-yl-2-pyridyl)cyclopropanecarboxamide], the IC50 was 7.94 µM.

Turning to `CC1(C)C(C(=O)Nc2cc(Oc3cncc(F)c3)ccn2)C1(C)C` [Compound E147, N-[4-[(5-fluoro-3-pyridyl)oxy]-2-pyridyl]-2,2,3,3-tetramethyl-cyclopropanecarboxamide], the IC50 was 0.00794 µM.

Take `CC1(C)C(C(=O)Nc2cc(Oc3ccc(F)nc3)ccn2)C1(C)C` [Compound E148, N-[4-[(6-fluoro-3-pyridyl)oxy]-2-pyridyl]-2,2,3,3-tetramethyl-cyclopropanecarboxamide]: the IC50 was 0.0302 µM.

Take `CC1(C)C(C(=O)Nc2cc(OCC(F)(F)F)ccn2)C1(C)C` [Compound E149, 2,2,3,3-tetramethyl-N-[4-(2,2,2-trifluoroethoxy)-2-pyridyl]cyclopropanecarboxamide]: the IC50 is 2 µM.

In the case of `CCN(C[C@@H](O)C(F)(F)F)C(=O)Nc1cc(Oc2ccc(F)c(F)c2)ccn1` [Compound E150, 3-[4-(3,4-difluorophenoxy)-2-pyridyl]-1-ethyl-1-[(2R)-3,3,3-trifluoro-2-hydroxy-propyl]urea], the IC50 was 0.00347 µM.

For `CCN(C[C@@H](O)C(F)(F)F)C(=O)Nc1cc(Oc2ccccc2F)ccn1` [Compound E151], the IC50 was 0.00363 µM.

For the molecule `CN(C[C@@H](O)C(F)(F)F)C(=O)Nc1cc(Oc2ccc(F)c(F)c2)ccn1` [Compound E152], the IC50 was 0.263 µM.

As for `Cc1cnc(NC(=O)N(C)C[C@@H](O)C(F)(F)F)cc1Oc1ccc(F)c(F)c1` [Compound E153], the IC50 was 0.245 µM.

Consider `CCN(C[C@@H](O)C(F)(F)F)C(=O)Nc1cc(Oc2cccc(F)c2)ccn1` [Compound E154], for which the IC50 was 0.00129 µM.

In the case of `CCN(C[C@@H](O)C(F)(F)F)C(=O)Nc1cc(Oc2ccc(F)cc2)ccn1` [Compound E155], the IC50 was 0.0251 µM.

For the molecule `CCN(C[C@@H](O)C(F)(F)F)C(=O)Nc1cc(Oc2cccc(C#N)c2)ccn1` [Compound E156], the IC50 is 1.55 µM.

Regarding `CCN(C[C@@H](O)C(F)(F)F)C(=O)Nc1cc(Oc2ccc(C#N)cc2)ccn1` [Compound E157], the IC50 is 1.58 µM.

As for `CCN(C[C@@H](O)C(F)(F)F)C(=O)Nc1cc(Oc2ccccc2C#N)ccn1` [Compound E158], the IC50 is 0.0178 µM.

Take `CCN(C[C@@H](O)C(F)(F)F)C(=O)Nc1cc(Oc2ccc(F)cc2F)ccn1` [Compound E159]: the IC50 is 0.0141 µM.

Turning to `CN(C[C@@](C)(O)C(F)(F)F)C(=O)Nc1cc(Oc2cccc(F)c2)ccn1` [Compound E160], the IC50 was 0.0427 µM.

As for `CCN(C[C@@H](O)C(F)(F)F)C(=O)Nc1cc(Oc2cccc(F)c2)c(F)cn1` [Compound E161], the IC50 was 0.000891 µM.

With `CCN(C[C@@H](O)C(F)(F)F)C(=O)Nc1cc(Oc2cncc(F)c2)ccn1` [Compound E162, 1-ethyl-3-[4-[(5-fluoro-3-pyridyl)oxy]-2-pyridyl]-1-[(2R)-3,3,3-trifluoro-2-hydroxy-propyl]urea], the IC50 is 0.0191 µM.

For the molecule `CCN(C[C@@H](O)C(F)(F)F)C(=O)Nc1cc(Oc2cc(F)cc(F)c2)ccn1` [Compound E163, 3-[4-(3,5-difluorophenoxy)-2-pyridyl]-1-ethyl-1-[(2R)-3,3,3-trifluoro-2-hydroxy-propyl]urea], the IC50 was 0.000575 µM.

`CC(C)C(=O)Nc1ccc(-c2ccccc2)cn1` [Compound E164, 2-methyl-N-(5-phenyl-2-pyridyl)propanamide]: the IC50 is 0.251 µM.

Turning to `CC(C)C(=O)Nc1ccc(-c2ccc(F)cc2)cn1` [Compound E165], the IC50 was 1.26 µM.

For `CC(C)C(=O)Nc1ccc(-c2cccc(F)c2)cn1` [Compound E166], the IC50 was 0.0631 µM.

For `CC(C)C(=O)Nc1ccc(-c2ccccc2F)cn1` [Compound E167], the IC50 was 0.316 µM.

On to `CC(C)C(=O)Nc1cc(-c2ccccc2)ccn1` [Compound E168], for which the IC50 was 7.94 µM.

On to `COc1ccccc1-c1ccc(NC(=O)C(C)C)nc1` [Compound E169], for which the IC50 is 2 µM.

With `CC(C)C(=O)Nc1ccc(-c2cccc(C#N)c2)cn1` [Compound E170], the IC50 is 0.2 µM.

Regarding `COc1cccc(-c2ccc(NC(=O)C(C)C)nc2)c1` [Compound E171], the IC50 was 0.316 µM.

As to `COc1ccc(-c2ccc(NC(=O)C(C)C)nc2)cc1` [Compound E172], the IC50 was 0.316 µM.

With `CC(C)C(=O)Nc1ccc(-c2cc(F)cc(F)c2)cn1` [Compound E173], the IC50 is 0.0316 µM.

With `CC(C)C(=O)Nc1ccc(-c2cc(F)cc(C#N)c2)cn1` [Compound E174], the IC50 is 0.1 µM.

Turning to `CC1(C)C(C(=O)Nc2ccc(-c3cn[nH]c3)cn2)C1(C)C` [Compound E175], the IC50 is 2.51 µM.

On to `CC1(C)C(C(=O)Nc2ccc(-c3ccn[nH]3)cn2)C1(C)C` [Compound E176], for which the IC50 was 0.12 µM.

Take `CC(C)C(=O)Nc1ccc(C2CCCC2)cn1` [Compound E177, N-(5-cyclopentyl-2-pyridyl)-2-methyl-propanamide]: the IC50 was 6.31 µM.

As for `CC(C)(C#N)C(=O)Nc1ccc(-c2cc(F)cc(F)c2)cn1` [Compound E178, 2-cyano-N-[5-(3,5-difluorophenyl)-2-pyridyl]-2-methyl-propanamide], the IC50 is 1.26 µM.

As for `O=C(Nc1ccc(-c2cc(F)cc(F)c2)cn1)C1CC1` [Compound E179], the IC50 is 0.2 µM.

For the molecule `CC1(C)CC1C(=O)Nc1ccc(-c2cc(F)cc(F)c2)cn1` (stereo not drawn) [Compound E180], the IC50 was 0.0126 µM.

For the molecule `CC(C)C(=O)Nc1ccc(Cc2ccccc2)cn1` [Compound E181], the IC50 is 6.31 µM.

Turning to `CC1(C)CC1C(=O)Nc1ccc(-c2cc(F)ccc2F)cn1` (stereo not drawn) [Compound E182], the IC50 was 0.0251 µM.

`CC1(C)CC1C(=O)Nc1ccc(-c2cccc(F)c2F)cn1` (stereo not drawn) [Compound E183]: the IC50 is 0.0195 µM.

In the case of `CC1(C)C(C(=O)Nc2ccc(-c3cncc(F)c3)cn2)C1(C)C` [Compound E184], the IC50 was 0.0708 µM.

As for `Cn1cc(-c2ccc(NC(=O)C3C(C)(C)C3(C)C)nc2)cn1` [Compound E185], the IC50 was 0.0933 µM.

On to `CC1(C)C(C(=O)Nc2ccc(C3CCOC3)cn2)C1(C)C` (stereo not drawn) [Compound E186], for which the IC50 is 0.186 µM.

`CC1(C)C(C(=O)Nc2ccc(C3=COCC3)cn2)C1(C)C` [Compound E187]: the IC50 is 0.0145 µM.

`CC1(C)CC1C(=O)Nc1ccc(-c2cc(F)cc(C#N)c2)cn1` (stereo not drawn) [Compound E188]: the IC50 was 0.0501 µM.

Regarding `Cn1ncc(-c2ccc(NC(=O)C3C(C)(C)C3(C)C)nc2)n1` [Compound E189, 2,2,3,3-tetramethyl-N-[5-(2-methyltriazol-4-yl)-2-pyridyl]cyclopropanecarboxamide], the IC50 was 1.17 µM.

Regarding `Cn1cc(-c2ccc(NC(=O)C3C(C)(C)C3(C)C)nc2)nn1` [Compound E190, 2,2,3,3-tetramethyl-N-[5-(1-methyltriazol-4-yl)-2-pyridyl]cyclopropanecarboxamide], the IC50 is 0.631 µM.

Take `C[C@H](O)CN(C)C(=O)Nc1ccc(-c2cc(F)cc(F)c2)cn1` [Compound E191, 3-[5-(3,5-difluorophenyl)-2-pyridyl]-1-[(2S)-2-hydroxypropyl]-1-methyl-urea]: the IC50 was 2.51 µM.
